{"source": "patent US10226409B2", "about": "“Pyruvate and related α-keto carboxylates as novel adjuvants in the treatment of post tooth whitening sensitivity and the tissue protective effect of pyruvate on the oral soft tissue” (priority 2016, dated 2019)", "key": {"[1]": {"assay": "In-office laser tooth whitening, desensitizer applied post treatment: tooth sensitivity", "assay_type": "in vivo, human", "settings": "for duration of tooth sensitivity: confirmed by follow up phone calls; for subjects experiencing tooth sensitivity after application of the desensitizer: 5 subjects per group", "excerpt": "In-office laser tooth whitening procedure using Biolase EZ lase, 7W diode laser, and the LaserWhite *20 whitening gel kit.\nA total of 15 candidates were selected and screened (for the presence of active decay, faulty restorations, cervical abrasion and attrition, enamel cracks) for the whitening procedure.\nThe arch has been divided in 4 quadrants, K1 (upper right), K2 (upper left), K3 (lower left), K4 (lower right).\nThe amount of 400 Jules has been applied per quadrant per application, in two separate applications. (total of 800 Jules per quadrant).\nThe candidates were assigned to 3 groups.\nGroup 1 is considered the control (C1), receiving desensitizer (post treatment) containing potassium nitrate.\nGroup 2, a second control group (C2), received as desensitizer (post treatment) stannous fluoride.\nGroup 3 (C3) received as desensitizer sodium pyruvate 99% in crystalline form. (applied over the gingival, gingival margin and DEJ)."}, "[2]": {"tested_on": "human and bovine endothelial cells", "settings": "cited from earlier work"}, "[3]": {"settings": "intracoronary; cited from earlier work"}, "isolated cardiomyocytes": {"tested_on": "isolated cardiomyocytes", "settings": "1-10 millimolar; cited from earlier work"}, "oxidative stress": {"tested_on": "oxidative stress", "settings": "cited from earlier work"}, "[4]": {"settings": "cardioplegia; cited from earlier work"}, "[5]": {"tested_on": "mammalian cellular systems", "settings": "applied exogenously in concentrations up to about 10 mM, short term studies; cited from earlier work"}, "[6]": {"tested_on": "isolated liver mitochondria", "settings": "1 mM pyruvate; cited from earlier work"}, "[7]": {"settings": "cited from earlier work"}, "[8]": {"assay": "Gingival lesions after tooth whitening, treated only with sodium pyruvate", "assay_type": "in vivo, human", "excerpt": "In addition, overall 6 patients presented with gingival lesions, manifested by burning sensation on the gingival margin, and visually expressed by white areas on the gingival margin."}, "[9]": {"settings": "R. Bünger et al., unpublished observations; cited from earlier work"}}}
{"smiles": "O=[N+]([O-])[O-].[K+]", "note": "[potassium nitrate]", "values": [{"measurement": "duration of tooth sensitivity", "setting": "[1]", "result": "up to 24 hours"}, {"measurement": "subjects experiencing tooth sensitivity after application of the desensitizer", "setting": "[1]; end of whitening procedure", "result": "3 out of 5"}]}
{"smiles": "CC(=O)C(=O)O", "note": "[pyruvate]", "values": [{"measurement": "bc1-2/bax ratio", "setting": "[2]; 30 min pulse of 0.5 mM H2O2", "result": "increasing the bc1-2/bax ratio"}, {"measurement": "cellular glutathione pool", "setting": "[2]; 30 min pulse of 0.5 mM H2O2", "result": "stabilizing the cellular glutathione pool"}, {"measurement": "cellular viability and survival", "setting": "[2]; 30 min pulse of 0.5 mM H2O2", "result": "dose-dependently enhanced cellular viability and survival"}, {"measurement": "phosphorylated p38 mitogen activated kinase", "setting": "[2]; H2O2-treated endothelial cells", "result": "prevented the accumulation of phosphorylated p38 mitogen activated kinase"}, {"measurement": "phosphorylation of ERK1/2", "setting": "[2]; H2O2-treated endothelial cells", "result": "transiently increased phosphorylation of ERK1/2"}, {"measurement": "efficacy", "setting": "[3]", "result": "beneficial efficacy"}, {"measurement": "toxicity", "setting": "[3]", "result": "no obvious toxicity"}, {"measurement": "calcium transients", "setting": "isolated cardiomyocytes", "result": "improves the calcium transients"}, {"measurement": "cytotoxicity", "setting": "isolated cardiomyocytes", "result": "without apparent cytotoxicity"}, {"measurement": "mitochondrial stability and mitochondrial Δϕ", "setting": "isolated cardiomyocytes", "result": "increases mitochondrial stability and mitochondrial Δϕ"}, {"measurement": "pyruvate level of optimum efficacy", "setting": "oxidative stress", "result": "2 to 5", "unit": "mM"}, {"measurement": "pyruvate level required for beneficial effects", "setting": "oxidative stress", "result": "≥ 0.5", "unit": "mM"}, {"measurement": "mortality and morbidity", "setting": "[4]", "result": "reduced mortality and morbidity"}, {"measurement": "cytotoxicity", "setting": "[5]", "result": "virtually no or little cytotoxicity"}, {"measurement": "dissociation of cytochrome C", "setting": "[6]", "result": "prevented the dissociation of cytochrome C"}, {"measurement": "expression of antiapoptotic bc1-2", "setting": "[6]", "result": "enhanced expression of antiapoptotic bc1-2"}, {"measurement": "mitochondrial respiration", "setting": "[6]", "result": "stabilized respiration"}, {"measurement": "rate constant of scavenging of peroxynitrite", "setting": "[7]; pH 7.4, 37° C.", "result": "88 to 100", "unit": "mol⁻¹ s⁻¹"}, {"measurement": "reaction with peroxynitrite faster than with H2O2", "setting": "[7]; physiological pyruvate anion", "result": "about 40 times"}, {"measurement": "speed of reaction with peroxynitrite relative to that with H2O2", "setting": "[7]; pyruvate decarboxylates to acetate", "result": "about one order of magnitude faster"}]}
{"smiles": "[13CH3][13C](=O)C(=O)[O-].[Na+]", "note": "[sodium pyruvate, α-Ketopropionic acid-2,3-13C2 sodium salt]", "values": [{"measurement": "burning sensation on the gingival margin", "setting": "[8]; 6 patients with gingival lesions, treated only with sodium pyruvate", "result": "immediate relieve of the burning sensation"}, {"measurement": "visual inspection of the gingiva", "setting": "[8]; previously discolored (white) site on the gingival margin", "result": "normal appearance of the gingiva"}, {"measurement": "duration of tooth sensitivity", "setting": "[1]", "result": "≤ 24", "unit": "h"}, {"measurement": "subjects experiencing tooth sensitivity after application of the desensitizer", "setting": "[1]; end of whitening procedure", "result": "1 of 5"}, {"measurement": "stability", "setting": "[9]", "result": "relative stability"}, {"measurement": "water solubility", "setting": "[9]", "result": "high water solubility"}]}
{"smiles": "[F][Sn][F]", "note": "[stannous fluoride]", "values": [{"measurement": "duration of tooth sensitivity", "setting": "[1]", "result": "over 24 hours"}, {"measurement": "members of the group experiencing tooth sensitivity", "setting": "[1]; end of whitening procedure", "result": 100, "unit": "%"}]}
